The subject of one series is HeLa cells. In words: Effect on HeLa cells viability in vitro. It counts as cell-based. The following applies: Homo sapiens; for activity at 0.05 µg/mL: dose 50 ng/ml; for activity at 0.1 µg/mL: dose 100 ng/ml; for activity at 0.2 µg/mL: dose 200 ng/ml; for activity at 0.4 µg/mL: dose 400 ng/ml. The protocol:
(§1) The new glycosides were tested against HeLa cells in vitro (time of exposure to the drugs: 24 hours), and on L 1210 and P 388 leukemia in mice in comparison with daunomycin.
^(a) HeLa cells were exposed to the drugs for 24 hours, then plated.
Number of colonies was evaluated 5 days later.
^(b) % over untreated controls.

Series [1] in a line: Toxic deaths in leukemia-bearing mice. It counts as in vivo. The following applies: for Toxic deaths: intraperitoneally on day 1, macroscopic autopsy findings. The protocol: as §1
Another series deals with Escherichia coli B. In words: MIC, standard tube dilution procedure. It counts as cell-based. Conditions: in vitro. On the procedure: (§2) The "in vitro" minimum inhibitory concentrations (MIC) of glycosides A, B, C and D were determined for certain microorganisms using the standard tube dilution procedure and are reported in Table 6.
Series [2] concerns Staphylococcus aureus 153. In words: MIC, standard tube dilution procedure. The following applies: in vitro. Type of series: cell-based. On the procedure:
as §2

Another series relates to Sarcina lutea ATCC 9341. In words: MIC, standard tube dilution procedure. Type of series: cell-based. The following applies: Micrococcus luteus, ATCC9341, in vitro. The protocol:
as §2

Series [3] relates to Bacillus subtilis ATCC 6633. In words: MIC, standard tube dilution procedure. Type of series: cell-based. Conditions: ATCC6633, in vitro. On the procedure:
as §2

Series [4] has as its system Staphylococcus aureus 209 P. Nature of the series: MIC, standard tube dilution procedure. Type of series: cell-based. The following applies: in vitro. The protocol:
as §2

For another series, the system named is P 388 leukemia. Nature of the series: Effect against P 388 leukemia in mice. It counts as in vivo. The protocol: as §1
^(a) Mice were treated intraperitoneally on day 1 after tumor cell

Where [5] appears, read: 24 h, read-out: No. of colonies, % over untreated controls.
Where [6] appears, read: 24 h, HeLa cells, 24 hours exposure, colonies evaluated 5 days later (Table 7), read-out: ID50 (the source's name).
Setting [7] is: 24 h, HeLa cells, 24 hours exposure, read-out: ID50 (the source's name).
The mark [8] stands for this setting: 24 hours exposure, read-out: No. of colonies, % over untreated controls.

In brackets after ≈: the same amount, converted by molar mass. Read-outs that look alike come from different tables or passages of the source.

With `COc1cccc2c1C(=O)c1c(O)c3c(c(O)c1C2=O)C[C@@](O)(C(C)=O)C[C@@H]3O[C@H]1C[C@H](N)[C@H](O)[C@H](C)O1` [Daunomycin, reference compound], the IC50 with HeLa cells (24 h, read-out: ID50) lay within 0.006 to 0.007 µg/mL (≈ 0.0114 to 0.0133 µM). In addition, in the series with HeLa cells (setting [5]), the activity at 0.00312 µg/mL lay in the range of 71 to 80% and the activity at 0.00625 µg/mL lay within 48 to 66%. For the same molecule, the Toxic deaths in series [1] (6.6 mg/kg) was 14/26.
What is called MIC is the lowest concentration found to suppress growth. Higher therefore signals a need for much substance. For `COc1cccc2c1C(=O)c1c(cc3c(c1O)[C@@H](O[C@H]1C[C@H](N)[C@H](O)[C@H](C)O1)C[C@](O)(C(=O)CO)C3)C2=O` [Glycoside A, 11-deoxyadriamycin], the minimal inhibitory concentration (MIC) against Escherichia coli B worked out at 50 µg/mL (≈ 94.8 µM); in series [2], 500 µg/mL (≈ 948 µM); in the series with Sarcina lutea ATCC 9341, 100 µg/mL (≈ 190 µM); in series [3], 100 µg/mL (≈ 190 µM); in series [4] it was 125 µg/mL (≈ 237 µM). Also, the IC50 in the series with HeLa cells (setting [6]) came to 0.105 µg/mL (≈ 0.199 µM); in the series with HeLa cells (setting [7]) it was 0.1 µg/mL (≈ 0.19 µM). Besides, the activity at 0.025 µg/mL with HeLa cells (dose 25 ng/ml, 24 hours exposure, read-out: No. of colonies, % over untreated controls) was 74%. Further, in the series with HeLa cells (setting [8]), the activity at 0.05 µg/mL stood at 73%. Also, the activity at 0.1 µg/mL in the series with HeLa cells (setting [8]) was found to be 63%. For the same molecule, the activity at 0.2 µg/mL with HeLa cells (setting [8]) turned out to be 1%. Further, the “Antitumor activity compared with daunomycin (in words)” value in the series on P 388 leukemia (at the tolerated dose) is recorded as “greater than that of daunomycin”. Moreover, the “Activity against P 338 leukemia (in words)” value with P 388 leukemia (dose of 66 mg/kg) was “active”. Also, the “Toxicity (in words)” value in series [1] (dose of 100 mg/kg, mice) is given as “toxic”.
Regarding `COc1cccc2c1C(=O)c1c(cc3c(c1O)[C@@H](O[C@H]1C[C@H](N)[C@H](O)[C@H](C)O1)C[C@](O)(C(C)O)C3)C2=O` (stereo partly drawn) [Glycoside B, 11-deoxy-13-dihydrodaunomycin], the minimal inhibitory concentration (MIC) in the series on Escherichia coli B was found to be 100 µg/mL (≈ 195 µM); in series [2], 1000 µg/mL (≈ 1950 µM); in the series with Sarcina lutea ATCC 9341 it was 100 µg/mL (≈ 195 µM); in series [3] it was 100 µg/mL (≈ 195 µM); in series [4], 1000 µg/mL (≈ 1950 µM). Moreover, the IC50 with HeLa cells (setting [7]) turned out to be 0.44 µg/mL (≈ 0.857 µM). Moreover, in the series with HeLa cells (setting [8]), the activity at 0.4 µg/mL is 66%. Also, in the series with HeLa cells (dose 800 ng/ml, 24 hours exposure, read-out: No. of colonies, % over untreated controls), the activity at 0.8 µg/mL stood at 20%. Also, the activity at 1.6 µg/mL in the series with HeLa cells (dose 1600 ng/ml, 24 hours exposure, read-out: No. of colonies, % over untreated controls) was 0%. In addition, the Toxic deaths in series [1] (500 mg/kg) is on record as 2/2.
Regarding `COc1cccc2c1C(=O)c1c(cc3c(c1O)[C@@H](O[C@H]1C[C@H](N)[C@H](O)[C@H](C)O1)C[C@](O)(C(C)=O)C3)C2=O` [Glycoside C, 11-deoxydaunomycin], the MIC in the series with Escherichia coli B was found to be 25 µg/mL (≈ 48.9 µM); in series [2] it was 250 µg/mL (≈ 489 µM); in the series with Sarcina lutea ATCC 9341 it was 12.5 µg/mL (≈ 24.4 µM); in series [3], 50 µg/mL (≈ 97.7 µM); in series [4], 62 µg/mL (≈ 121 µM). Further, the IC50 with HeLa cells (setting [6]) is 0.054 µg/mL (≈ 0.106 µM); in the series on HeLa cells (setting [7]) it was 0.05 µg/mL (≈ 0.0977 µM). In addition, in the series with HeLa cells (setting [8]), the activity at 0.05 µg/mL was 54%. Besides, the activity at 0.1 µg/mL with HeLa cells (setting [8]) was determined as 44%. Also, the activity at 0.2 µg/mL with HeLa cells (setting [8]) was found to be 3%. In addition, the Toxic deaths is recorded as 3/8 in series [1] (100 mg/kg) and 3/19 in series [1] (150 mg/kg).
Consider `CC[C@]1(O)Cc2cc3c(c(O)c2[C@@H](O[C@H]2C[C@H](N)[C@H](O)[C@H](C)O2)C1)C(=O)c1c(OC)cccc1C3=O` [Glycoside D, 11-deoxy-13-deoxo-daunomycin], for which the minimum inhibitory concentration (MIC) against Escherichia coli B stood at 50 µg/mL (≈ 100 µM); in series [2], 1000 µg/mL (≈ 2010 µM); in the series on Sarcina lutea ATCC 9341, 25 µg/mL (≈ 50.2 µM); in series [3], 100 µg/mL (≈ 201 µM); in series [4], 250 µg/mL (≈ 502 µM). In the series on HeLa cells (setting [7]), the IC50 was 0.22 µg/mL (≈ 0.442 µM). For the same molecule, in the series on HeLa cells (setting [8]), the activity at 0.1 µg/mL turned out to be 109%. In addition, the activity at 0.2 µg/mL with HeLa cells (setting [8]) worked out at 53%. In addition, the activity at 0.4 µg/mL with HeLa cells (setting [8]) amounted to 0%. For the same molecule, the Toxic deaths in series [1] (125 mg/kg) and in series [1] (250 mg/kg) was 5/5 each time.
